A short description of the series: Human HepG2 cell viability assay in 384 well format. The series is classed as toxicity, cell-based. The settings on record: HepG2 cells, read-out: Inhibition. Details: dose 125 nL, time 70.5 hour; concentration not given beside the values.

Structures are written as SMILES.

Consider `CC(C)CC(=O)N(C)Cc1nc(C(F)(F)F)cs1`, for which the cytotoxicity at 70.5 h is -9.65%.

With `CC(=O)N1CC(C)CN(C(=O)c2cnccn2)c2ccccc21` (stereo not drawn), the cytotoxicity at 70.5 h was -12.2%.

Take `O=S(=O)(NCCc1ccccc1F)N1CCOCC1`: the cytotoxicity at 70.5 h was -3.51%.

`c1cc2c(cc1CSCc1noc(C3CC3)n1)OCCO2`: the cytotoxicity at 70.5 h was -13.8%.

Turning to `Cc1ccc(S(=O)(=O)NCCc2nnc[nH]2)c2cccnc12`, the cytotoxicity at 70.5 h is 15.2%.

Consider `CCOc1nnc(CN2CCN(CCOC)C(CC)C2)s1` (stereo not drawn), for which the cytotoxicity at 70.5 h was 12.8%.

`COCCCN1Cc2cccc(NC(=O)C(C)(C)C)c2C1`: the cytotoxicity at 70.5 h amounted to 31.1%.

On to `CC(CNC1CCN(c2ccccn2)CC1)Oc1ccc(F)cc1` (stereo not drawn), for which the cytotoxicity at 70.5 h turned out to be 23.5%.

Take `CCOc1nnc(CN2CCN(CCOC)C(C)C2)s1` (stereo not drawn): the cytotoxicity at 70.5 h is -7.83%.

`Cn1cnc(S(=O)(=O)N2CCCc3cc(F)cc(F)c32)c1Cl`: the cytotoxicity at 70.5 h was 10.5%.

For `Cn1cnc(S(=O)(=O)N2CCCc3cccc(F)c32)c1Cl`, the cytotoxicity at 70.5 h was -0.174%.

Consider `CC(=O)Nc1ccc(CNCC(O)c2ccccc2)cc1` (stereo not drawn), for which the cytotoxicity at 70.5 h was -2.04%.

Regarding `CCN(CC)c1ccc(CNC(=O)N2CCC(C#N)CC2)cc1`, the cytotoxicity at 70.5 h was -14.6%.

For `Cc1cc(CN(C)C(=O)C(c2ccccc2)N2CCSCC2)no1` (stereo not drawn), the cytotoxicity at 70.5 h amounted to 8.49%.

As for `CC(C)NC(=O)CCNC(=O)CCc1cc(Cl)cs1`, the cytotoxicity at 70.5 h was -8.99%.

Consider `N#Cc1cccc(NC(=O)N(CC(F)F)C2CC2)c1`, for which the cytotoxicity at 70.5 h was -2.73%.

As to `NS(=O)(=O)c1cnn(CC(=O)Nc2c(Cl)cccc2Cl)c1`, the cytotoxicity at 70.5 h was -5.76%.

Turning to `Cc1cc(OCCC(=O)Nc2cccc(F)c2)nnc1C`, the cytotoxicity at 70.5 h was found to be 8.29%.

For `Cc1nc(C)c(C(C)NCc2c(C)nn(CC(C)C)c2N(C)C)s1` (stereo not drawn), the cytotoxicity at 70.5 h was -3.31%.

As to `CS(=O)(=O)NCCCNC(=O)c1cnc(-c2ccsc2)s1`, the cytotoxicity at 70.5 h was -6.18%.

As to `Cc1cc(OCC(=O)NCc2ccc(F)cc2)nnc1C`, the cytotoxicity at 70.5 h was -6.01%.

For `O=C(NCCCn1ccccc1=O)c1cnc(-c2ccsc2)s1`, the cytotoxicity at 70.5 h was -11.3%.

As to `COCC(O)CN(C)c1cc(C(F)(F)F)nc(-c2cccnc2)n1` (stereo not drawn), the cytotoxicity at 70.5 h is -1.69%.

On to `Cc1cc(NC(=O)NCc2ccncc2)ccc1OC(C)C`, for which the cytotoxicity at 70.5 h is -3.47%.

`Cc1cc(OCCC(=O)NCc2ccc(F)cc2)nnc1C`: the cytotoxicity at 70.5 h was found to be 0.423%.

As to `O=C(NCCc1cc(F)ccc1F)NC(CO)c1ccccc1` (stereo not drawn), the cytotoxicity at 70.5 h worked out at 19.3%.

Regarding `O=C(O)c1cc(/C=C/c2ccc3ccccc3c2)ncn1`, the cytotoxicity at 70.5 h was -7.92%.

As for `CCC1CN(C)c2ccccc2CN1C(=O)CCn1cncn1` (stereo not drawn), the cytotoxicity at 70.5 h is -7.82%.

`CCC1CN(C)c2ccccc2CN1CCn1cncn1` (stereo not drawn): the cytotoxicity at 70.5 h is -9.88%.

For `CC(C)CN(C(=O)Nc1cccnc1)C1CC1`, the cytotoxicity at 70.5 h is -7.03%.

On to `CC(C)COCCNC1CCN(c2ccccn2)CC1`, for which the cytotoxicity at 70.5 h amounted to 0.205%.

Consider `O=C(Nc1cccnc1)N(Cc1ccccc1)C1CC1`, for which the cytotoxicity at 70.5 h is -15.3%.

As for `Cc1csc(C(C)(C)NCC(=O)N(C)Cc2ccc(C)o2)n1`, the cytotoxicity at 70.5 h came out at 4.78%.

In the case of `Cc1ccc(CN(C)C(=O)CNC(C)(C)c2noc(C(C)(C)C)n2)o1`, the cytotoxicity at 70.5 h is -0.348%.

Turning to `COc1ncnc(N)c1CNCc1ccccc1-n1cccn1`, the cytotoxicity at 70.5 h came to 6.74%.

On to `O=C(NCc1ccc(-n2cncn2)nc1)c1cnccn1`, for which the cytotoxicity at 70.5 h turned out to be 7.67%.

Consider `O=C(NCc1ccc(-n2cncn2)nc1)c1cc(Cl)ccn1`, for which the cytotoxicity at 70.5 h is 12.5%.

Regarding `Cc1csc(N2CCN(Cc3ccccn3)CC2)n1`, the cytotoxicity at 70.5 h was -9.56%.

In the case of `CCCN(CC(=O)N(C)C)C(=O)c1ccc(-c2nc(C)cs2)cc1`, the cytotoxicity at 70.5 h was -6.25%.

For `Cc1cccc(COc2ccc(C(C)NS(N)(=O)=O)cc2)c1` (stereo not drawn), the cytotoxicity at 70.5 h was -8.27%.

For the molecule `COc1ccc2c(c1)CCCN(CC(=O)NCC1CCCO1)C2` (stereo not drawn), the cytotoxicity at 70.5 h is -5.84%.

As to `CC(=O)N1CCC(NC(=O)CN2CCCc3c(C)ccc(F)c32)CC1`, the cytotoxicity at 70.5 h was -9.21%.

For `Cc1ccc(F)c2c1CCCN2CC(=O)NC1CCS(=O)(=O)C1` (stereo not drawn), the cytotoxicity at 70.5 h is -4.5%.

As for `CCc1nnc(C(C)N2CCC(NC(=O)C3CCCCC3)CC2)o1` (stereo not drawn), the cytotoxicity at 70.5 h is -7.39%.

With `CSc1ncccc1C(=O)Nc1ccc(Cn2ccccc2=O)cc1`, the cytotoxicity at 70.5 h is 18.3%.

With `O=C(NCC[S+]([O-])Cc1ccccc1)c1ccc2[nH]c(=O)[nH]c2c1` (stereo not drawn), the cytotoxicity at 70.5 h was -3.54%.

For the molecule `Cc1ccc(CNS(=O)(=O)CCCC#N)cc1F`, the cytotoxicity at 70.5 h was -4.22%.

For `O=C(NCC[S+]([O-])c1ccccc1)c1ccc2[nH]c(=O)[nH]c2c1` (stereo not drawn), the cytotoxicity at 70.5 h was -6.4%.

With `Cc1cc(CNS(C)(=O)=O)ccc1N(C)C`, the cytotoxicity at 70.5 h was -7.39%.

Take `O=C(NCC(O)Cc1ccccc1)c1ccc2[nH]c(=O)[nH]c2c1` (stereo not drawn): the cytotoxicity at 70.5 h was -6.14%.

Take `Cc1cc(C)n(C2CN(CCC(=O)NCCc3ccccc3)C2)n1`: the cytotoxicity at 70.5 h is -1.03%.

With `CCc1cnc(CNC(=O)NCCc2ccc(O)cc2)s1`, the cytotoxicity at 70.5 h was -1.61%.

Regarding `CCc1cnc(CNC(=O)NCCCO)s1`, the cytotoxicity at 70.5 h is -3.22%.

Regarding `O=C(C1CCOC1)N1CCN(CC2CC2)c2ccccc21` (stereo not drawn), the cytotoxicity at 70.5 h is -6.39%.

For `CCc1c(C(=O)Nc2ccc(F)c(C(=O)NC)c2)cnn1CC(C)C`, the cytotoxicity at 70.5 h stood at 0.0762%.

`Cc1ncccc1C(=O)Nc1cccc(Cn2ccccc2=O)c1`: the cytotoxicity at 70.5 h was -7.74%.

Consider `Cc1cc(C)nc(NC2CCN(CCOC(C)C)CC2)n1`, for which the cytotoxicity at 70.5 h was found to be 1.5%.

Take `O=C(C1CCOC1)N1CCN(CC(F)(F)F)c2ccccc21` (stereo not drawn): the cytotoxicity at 70.5 h was -5.62%.

Regarding `COCCS(=O)(=O)NCc1ccc(N(C)C)c(C)c1`, the cytotoxicity at 70.5 h was -7.82%.

For the molecule `CC(O)CN1CCN(Cc2coc(-c3ccccc3Cl)n2)CC1` (stereo not drawn), the cytotoxicity at 70.5 h is -4.11%.

For the molecule `NC(=O)C1Cc2ccccc2CN1CCC(=O)N1CCc2ccccc21` (stereo not drawn), the cytotoxicity at 70.5 h was -6.41%.

Turning to `O=C(Cc1ccc2c(c1)CCC2)NC1CCN(Cc2ccccc2)CC1`, the cytotoxicity at 70.5 h came out at 30.6%.

On to `CC(C)(C)c1noc(CCCC(=O)N2CCNC(=O)C2)n1`, for which the cytotoxicity at 70.5 h is -16.6%.

As to `CCCNC(=O)CNC(=O)CC1CCCc2cc(OC)ccc21` (stereo not drawn), the cytotoxicity at 70.5 h was -6.62%.

As to `CN(CC(=O)Nc1ccccc1)C(=O)CN(C)c1ccc(Cl)cn1`, the cytotoxicity at 70.5 h was -10.4%.

`CN(c1ccc(CNC(=O)c2c[nH]c(=O)c(Cl)c2)cc1)C1CCCCC1`: the cytotoxicity at 70.5 h was found to be 5.49%.

In the case of `O=C(O)c1cnc2c(cnn2C2CCCC2)c1`, the cytotoxicity at 70.5 h was -0.534%.

As to `Cc1oc(NC(=O)C(C)N2CCN(C(C)(C)CO)CC2)c(C#N)c1C` (stereo not drawn), the cytotoxicity at 70.5 h is -4.43%.

With `CCn1cc(S(=O)(=O)NCC(OC)c2ccccc2)cn1` (stereo not drawn), the cytotoxicity at 70.5 h is -3.94%.

For the molecule `CC(C)(C)OC(=O)Cn1nc(C2CC2)cc(C(F)(F)F)c1=O`, the cytotoxicity at 70.5 h was -2.4%.

`Cc1ccc(NC(=O)CN(C)C(=O)c2ccc(-n3cccc3)nc2)nc1`: the cytotoxicity at 70.5 h is -1.66%.

For the molecule `CC(C)NC(=O)CN1CCC2(CC1)OCCO2`, the cytotoxicity at 70.5 h was -2.05%.

On to `COC(=O)CCN(CC1CCOC1)C1CC1` (stereo not drawn), for which the cytotoxicity at 70.5 h was found to be 0.428%.

With `CCc1noc(CS(=O)(=O)C(C)c2nc(C3CC3)no2)n1` (stereo not drawn), the cytotoxicity at 70.5 h was 13.9%.

Regarding `CN(C(=O)c1ccc(Cl)c(S(C)(=O)=O)c1)c1ccccc1`, the cytotoxicity at 70.5 h was 0.806%.

Regarding `Cc1ccnc(C(NC(=O)c2sc(C)nc2C)C2CC2)n1` (stereo not drawn), the cytotoxicity at 70.5 h was -2.09%.

Turning to `Cc1ccnc(C(NC(=O)c2ncoc2C)C2CC2)n1` (stereo not drawn), the cytotoxicity at 70.5 h is 16.5%.

As for `COc1ccc(N(C)C(=O)c2cccc(S(C)(=O)=O)c2)cn1`, the cytotoxicity at 70.5 h was -3.33%.

As for `CCOc1ccccc1NC(=O)CN(C)Cc1ccccc1Cl`, the cytotoxicity at 70.5 h is -0.249%.

As for `CCN(CC)CC1CCN(Cc2ncc(C(C)(C)C)o2)CC1`, the cytotoxicity at 70.5 h is 1.11%.

Take `COC(=O)C1CN(Cc2nc(-c3ccccc3)cs2)C[C@@H](C)O1` (stereo partly drawn): the cytotoxicity at 70.5 h was found to be 3.89%.

Regarding `CCN(CCS(=O)(=O)c1ccc(Cl)cc1)Cc1ccc(OC)c(OC)c1`, the cytotoxicity at 70.5 h was -12.9%.

With `CCCn1cc(NC(=O)c2ccc(S(=O)(=O)CC)cc2)ccc1=O`, the cytotoxicity at 70.5 h was determined as 22.4%.

For the molecule `CN(Cc1cccc(C(N)=O)c1)c1ncc(C#N)cc1Cl`, the cytotoxicity at 70.5 h was -9.21%.

As to `Cn1cc(NC(=O)N2CCN(Cc3cscn3)CC2)ccc1=O`, the cytotoxicity at 70.5 h is -9.04%.

On to `CCN(C1CCN(Cc2ncc(C(C)(C)C)o2)CC1)S(C)(=O)=O`, for which the cytotoxicity at 70.5 h was -7.94%.

As to `COC(=O)c1sc2cccc(F)c2c1CNC(=O)C1CC1`, the cytotoxicity at 70.5 h came to 1.14%.

For the molecule `O=C(NC1CCN(c2ncccn2)CC1)c1sccc1C1CC1`, the cytotoxicity at 70.5 h was -5.49%.

Turning to `CN(Cc1cccc(C(N)=O)c1)c1ncc(C(N)=O)cc1Cl`, the cytotoxicity at 70.5 h was -9.7%.

Consider `CCOc1cncc(N2CCN(c3ccccc3F)CC2)n1`, for which the cytotoxicity at 70.5 h was 6.24%.

Consider `COc1cc2c(cc1CNC(=O)Cc1cc(C)[nH]n1)OC(C)C2` (stereo not drawn), for which the cytotoxicity at 70.5 h stood at 3.19%.

As to `Cc1cc(NCc2csc(-c3ccsc3)n2)no1`, the cytotoxicity at 70.5 h stood at 0.878%.

In the case of `CCc1nc2c(s1)C(N(C)C(=O)c1csnn1)CCC2` (stereo not drawn), the cytotoxicity at 70.5 h was -5.63%.

`CCCn1cc(NC(=O)c2ccc(S(C)(=O)=O)cc2)ccc1=O`: the cytotoxicity at 70.5 h is -1.34%.

Take `CCc1nc(C(=O)N(C)CC(=O)N(C)C)nn1-c1ccccc1Cl`: the cytotoxicity at 70.5 h turned out to be 27.7%.

With `CC(C)c1noc(CCCC(=O)Nc2cccc(F)c2)n1`, the cytotoxicity at 70.5 h is 15.5%.

`Cc1nnc(NC(=O)NCc2ccc(N3CCNC(=O)C3)cc2)s1`: the cytotoxicity at 70.5 h was -3.76%.

Take `CC(O)CNCc1c[nH]nc1-c1cc2ccccc2o1` (stereo not drawn): the cytotoxicity at 70.5 h is 17.5%.

`CC(C)(C)OC(=O)NCCNC(=O)c1ccc2cc[nH]c2c1`: the cytotoxicity at 70.5 h stood at 0.498%.

`CC(=O)c1cccc(NC(=O)NCCCc2nc(C(C)C)no2)c1`: the cytotoxicity at 70.5 h was -1.88%.

Turning to `Cc1nc(N2CCC(CC(=O)N3CCCC3)CC2)c2cnn(C)c2n1`, the cytotoxicity at 70.5 h was -3.28%.

In the case of `CC1CCC(NC(=O)CNC2(c3cccc(Br)c3)CCOCC2)CC1` (stereo not drawn), the cytotoxicity at 70.5 h was found to be 9.26%.

`Cc1cccc(COc2ccc(C(C)N)cc2)c1` (stereo not drawn): the cytotoxicity at 70.5 h is -4.64%.

These data come from ChEMBL document CHEMBL3507680, “University of Dundee, Gates Library screen for HepG2 cell viability”.
